Laboratory results: PubChem BioAssay AID192 (DTP/NCI, 2004)
Inconclusive results and toxic doses are left out. How the source made its calls: active means survival T/C of 150% or more; inactive means T/C below 125% in these data.

Test system: BDF1 mice, B16 melanoma ip, median survival T/C
Assay: NCI In Vivo Anticancer Drug Screen. Data for tumor model B16 Melanoma (intraperitoneal) in B6D2F1 (BDF1) mice
Details: endpoint: median survival time, higher = longer survival
How it was run: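 Compounds were tested in mice carrying transplantable tumors. Survival or tumor size was recorded, and each value is the treated-group measurement (T) divided by that of the vehicle-treated control group (C).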

[1] = dose: 6.25 mg/kg/injection, schedule: Q01DX009 (ip), vehicle: saline
[2] = dose: 12.5 mg/kg/injection, schedule: Q01DX009 (ip), vehicle: saline
[3] = dose: 6.25 mg/kg/injection, schedule: Q01DX009 (ip), vehicle: saline with Tween-80
[4] = dose: 8.0 mg/kg/injection, schedule: Q04DX003 (ip), vehicle: saline
[5] = dose: 200.0 mg/kg/injection, schedule: Q01DX009 (ip), vehicle: saline with Tween-80
[6] = dose: 100.0 mg/kg/injection, schedule: Q01DX009 (ip), vehicle: saline
[7] = dose: 200.0 mg/kg/injection, schedule: Q01DX009 (ip), vehicle: saline
[8] = dose: 400.0 mg/kg/injection, schedule: Q01DX009 (ip), vehicle: saline
[9] = dose: 12.5 mg/kg/injection, schedule: Q01DX009 (ip), vehicle: saline with Tween-80

Measured: T/C

CC(CC1c2ccccc2CCc2ccccc21)CN(C)C (stereo not given)
inactive: dose: 1.25 mg/kg/injection, schedule: Q01DX009 (ip), vehicle: saline 98 % of control | dose: 2.5 mg/kg/injection, schedule: Q01DX009 (ip), vehicle: saline 106 % of control | dose: 5.0 mg/kg/injection, schedule: Q01DX009 (ip), vehicle: saline 94 % of control | [1] 113 % of control | dose: 10.0 mg/kg/injection, schedule: Q01DX009 (ip), vehicle: saline 106 % of control | [2] 119 % of control | dose: 20.0 mg/kg/injection, schedule: Q01DX009 (ip), vehicle: saline 106 % of control | dose: 40.0 mg/kg/injection, schedule: Q01DX009 (ip), vehicle: saline 101 % of control | dose: 80.0 mg/kg/injection, schedule: Q01DX009 (ip), vehicle: saline 92 % of control

O=C(C=C(C(F)(F)F)C(F)(F)F)c1cccc(S(=O)(=O)F)c1
inactive: dose: 1.56 mg/kg/injection, schedule: Q01DX009 (ip), vehicle: saline with Tween-80 86 % of control | dose: 3.13 mg/kg/injection, schedule: Q01DX009 (ip), vehicle: saline with Tween-80 93 % of control | [3] 89 % of control | [4] 105 % of control | dose: 12.0 mg/kg/injection, schedule: Q04DX003 (ip), vehicle: saline 105 % of control | dose: 18.0 mg/kg/injection, schedule: Q04DX003 (ip), vehicle: saline 110 % of control

C[C@@H]1CC[C@@]2(NC1)O[C@H]1C[C@H]3[C@@H]4CC=C5C[C@@H](O)CC[C@]5(C)[C@H]4CC[C@]3(C)[C@H]1[C@@H]2C
inactive: dose: 12.5 mg/kg/injection, schedule: Q01DX009 (ip), vehicle: Klucel (hydroxypropylcellulose) (HPC) 95 % of control

COc1c(O)cc2c(c1OC)-c1ccc(OC)c(=O)cc1[C@@H](NC(C)=O)CC2
inactive: dose: 0.62 mg/kg/injection, schedule: Q01DX009 (ip), vehicle: saline with Tween-80 123 % of control

C=C1C(=O)OC2/C=C(\CO)C(OC(C)=O)CC(O)/C(C)=C/C(OC(=O)C(C)CC)C12 (stereo not given)
inactive: dose: 1.56 mg/kg/injection, schedule: Q01DX009 (ip), vehicle: Klucel (hydroxypropylcellulose) (HPC) 108 % of control | dose: 3.13 mg/kg/injection, schedule: Q01DX009 (ip), vehicle: Klucel (hydroxypropylcellulose) (HPC) 101 % of control | dose: 6.25 mg/kg/injection, schedule: Q01DX009 (ip), vehicle: Klucel (hydroxypropylcellulose) (HPC) 109 % of control

NC(CNC(=O)C(Cl)Cl)C(=O)O (stereo not given)
inactive: dose: 6.25 mg/kg/injection, schedule: Q01DX009 (ip), vehicle: water 93 % of control | dose: 12.5 mg/kg/injection, schedule: Q01DX009 (ip), vehicle: water 105 % of control | dose: 25.0 mg/kg/injection, schedule: Q01DX009 (ip), vehicle: water 100 % of control | dose: 50.0 mg/kg/injection, schedule: Q01DX009 (ip), vehicle: water 98 % of control | dose: 100.0 mg/kg/injection, schedule: Q01DX009 (ip), vehicle: water 89 % of control

O=C1c2ccccc2C(=O)c2c(NCCN3CCNCC3)ccc(NCCN3CCNCC3)c21
inactive: dose: 8.0 mg/kg/injection, schedule: Q01DX009 (ip), vehicle: acid diluted with saline 106 % of control | dose: 16.0 mg/kg/injection, schedule: Q01DX009 (ip), vehicle: acid diluted with saline 104 % of control | dose: 32.0 mg/kg/injection, schedule: Q01DX009 (ip), vehicle: acid diluted with saline 104 % of control | dose: 64.0 mg/kg/injection, schedule: Q01DX009 (ip), vehicle: acid diluted with saline 96 % of control

Nc1cc(S(N)(=O)=O)ccc1SSc1ccc(S(N)(=O)=O)cc1N
inactive: dose: 100.0 mg/kg/injection, schedule: Q01DX009 (ip), vehicle: saline with Tween-80 95 % of control | [5] 93 % of control

CC(C)C(Br)C(=O)NCC(=O)NCC(=O)O (stereo not given)
inactive: [5] 91 % of control | dose: 400.0 mg/kg/injection, schedule: Q01DX009 (ip), vehicle: saline with Tween-80 87 % of control

Nc1ccn(C2OC(COP(=O)(O)O)C(O)C2O)c(=O)n1 (stereo not given)
inactive: dose: 16.0 mg/kg/injection, schedule: Q01DX009 (ip), vehicle: saline with Tween-80 105 % of control | dose: 32.0 mg/kg/injection, schedule: Q01DX009 (ip), vehicle: saline with Tween-80 105 % of control | dose: 64.0 mg/kg/injection, schedule: Q01DX009 (ip), vehicle: saline with Tween-80 115 % of control | dose: 128.0 mg/kg/injection, schedule: Q01DX009 (ip), vehicle: saline with Tween-80 122 % of control

CC1CN1c1nc(N2CC2C)nc(N2CC2C)n1 (stereo not given)
inactive: dose: 0.25 mg/kg/injection, schedule: Q01DX009 (ip), vehicle: saline 105 % of control | dose: 0.5 mg/kg/injection, schedule: Q01DX009 (ip), vehicle: saline 97 % of control | dose: 1.0 mg/kg/injection, schedule: Q01DX009 (ip), vehicle: saline with Tween-80 111 % of control | dose: 1.0 mg/kg/injection, schedule: Q01DX009 (ip), vehicle: saline 98 % of control | dose: 2.0 mg/kg/injection, schedule: Q01DX009 (ip), vehicle: saline with Tween-80 116 % of control | dose: 2.0 mg/kg/injection, schedule: Q01DX009 (ip), vehicle: saline 94 % of control | dose: 2.0 mg/kg/injection, schedule: Q04DX003 (ip), vehicle: saline 105 % of control | dose: 4.0 mg/kg/injection, schedule: Q01DX009 (ip), vehicle: saline with Tween-80 105 % of control | dose: 4.0 mg/kg/injection, schedule: Q04DX003 (ip), vehicle: saline 94 % of control | dose: 8.0 mg/kg/injection, schedule: Q01DX009 (ip), vehicle: saline with Tween-80 90 % of control | [4] 105 % of control

OC(CI)C(O)C(O)C(O)CI (stereo not given)
inactive: [6] 97 % of control | [7] 94 % of control | [8] 103 % of control

CCCCN(CCCC)CCCC#N
inactive: [7] 92 % of control

ClCCN(CCCl)CCCN1c2ccccc2Sc2ccc(Cl)cc21
inactive: dose: 3.12 mg/kg/injection, schedule: Q01DX009 (ip), vehicle: saline with Tween-80 120 % of control | [9] 120 % of control | dose: 25.0 mg/kg/injection, schedule: Q01DX009 (ip), vehicle: saline with Tween-80 117 % of control

NC(=O)c1cc2c(N)[nH]nc2nc1N
inactive: [1] 106 % of control | [2] 100 % of control | dose: 25.0 mg/kg/injection, schedule: Q01DX009 (ip), vehicle: saline 95 % of control

O=C1NNC(=O)NN1
inactive: dose: 100.0 mg/kg/injection, schedule: Q01DX009 (ip), vehicle: Klucel (hydroxypropylcellulose) (HPC) 118 % of control | dose: 200.0 mg/kg/injection, schedule: Q01DX009 (ip), vehicle: Klucel (hydroxypropylcellulose) (HPC) 106 % of control

Clc1ccc2c(c1)/C(=C/c1ccccc1Cl)c1cc(Cl)cc(Cl)c1-2
inactive: [3] 90 % of control | [9] 88 % of control

Cc1cc(O)c(C(C)C)cc1S(=O)(=O)O (tested in a mixture with another compound)
inactive: dose: 50.0 mg/kg/injection, schedule: Q01DX009 (ip), vehicle: saline with Tween-80 98 % of control | [5] 100 % of control

NNC(=O)c1ccc(Cl)cc1Nc1ccc(F)cc1
inactive: dose: 25.0 mg/kg/injection, schedule: Q04DX003 (ip), vehicle: saline 92 % of control | dose: 50.0 mg/kg/injection, schedule: Q04DX003 (ip), vehicle: saline 97 % of control | dose: 100.0 mg/kg/injection, schedule: Q04DX003 (ip), vehicle: saline 100 % of control

CCOC(=O)N(C)C
inactive: [6] 93 % of control | [7] 98 % of control | [8] 94 % of control
